Literature values, collected in US20110135569A1, “METHOD FOR THERAPEUTIC ADMINISTRATION OF RADIONUCLEOSIDES” (Peak Biosciences Inc., priority 2007, published 2011).

Key:
replicating cancer cells = conditions: low picomolar range, e.g. value
[1] = human subjects; locally injected or intra-arterially infused

## O=c1[nH]c(=O)n([C@H]2C[C@H](O)[C@@H](CO)O2)cc1[125I] [^125IUDR, 5-[^125I]-iodouridine 2′-deoxyribonucleoside]
Replicating cancer cells
  concentration able to destroy the chromosomes of replicating cancer cells: 5 picomoles/liter
[1]
  plasma half-life: less than 5 minutes
